Here are results for 23 compounds from patent US9051325B2, “Bicyclic [5,6] imidazo pyrimodone compounds for use in the treatment of diseases or conditions mediated by Lp-PLA2” (GlaxoSmithKline Intellectual Property Development Limited, priority 2013, dated 2015).

One experiment addresses T1, recombinant human Lp-PLA2 (Homo sapiens, UniProt Q13093).
T1 sequence (Q13093 22-441): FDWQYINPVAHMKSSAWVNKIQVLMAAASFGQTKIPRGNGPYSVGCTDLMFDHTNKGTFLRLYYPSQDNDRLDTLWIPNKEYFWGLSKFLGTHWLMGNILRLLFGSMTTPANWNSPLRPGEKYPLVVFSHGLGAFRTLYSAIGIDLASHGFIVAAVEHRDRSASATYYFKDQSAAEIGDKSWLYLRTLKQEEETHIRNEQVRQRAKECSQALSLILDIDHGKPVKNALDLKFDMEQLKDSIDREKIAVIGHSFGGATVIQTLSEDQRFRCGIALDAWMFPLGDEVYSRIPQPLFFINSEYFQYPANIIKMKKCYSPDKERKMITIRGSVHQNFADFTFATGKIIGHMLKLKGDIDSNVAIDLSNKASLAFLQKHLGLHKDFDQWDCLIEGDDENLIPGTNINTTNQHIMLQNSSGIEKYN
Nature of the experiment: Recombinant human Lp-PLA2 assay (rhLp-PLA2, PED6 assay). Format: biochemical. Conditions: lower bounds; read-out: pIC50 values in the PED6 assay (converted). The text has this:
(1) Recombinant Human Lp-PLA2 Assay (rhLp-PLA2) (Also Referred to as “PED6” Assay)
N-((6-(2,4-dinitrophenyl)amino)-hexanoyl)-2-(4,4-difluoro-5,7-dimethyl-4-bora-3a,4a-diaza-s-indacene-3-pentanoyl)-1-hexadecanoyl-sn-glycero-3-phosphoethanolamine, triethylammonium salt (PED6) is a commercially available fluorescently-labeled phospholipid, which is commercially available from Invitrogene and Molecular Probes. There is a quenching […] and a Bodipy fluorescein (FL) group in the sn2 position. Upon cleavage with Lp-PLA2, the Bodipy FL group is liberated and then may result in an increase in fluorescence. Inhibitors of Lp-PLA2 therefore prevent this cleavage and no fluorescent increase is observed.
The PED6 assay was run as an unquenched 10 μL assay. The source plate containing the compounds to be tested was prepared by making 1:3 (by volume) serial dilution of the compounds within DMSO on 384-well microplate. Then, 0.01 μL of the compounds on compound source plate were transferred into 384 well Greiner 784076 (black) plates using ECHO liquid dispenser. 5 μL of recombinant human Lp-PLA2 enzyme (4 nM (or […]) rhLp-PLA2 in assay buffer of 50 mM HEPES, pH 7.4, 150 mM NaCl, 1 mM CHAPS) was added to each well of the plate. Plates were centrifuged for 10 sec at 500 rpm. After 30 minutes preincubation, 5 μL of substrate ([…] PED6 [from 5 mM DMSO stock] in assay buffer of 50 mM HEPES, pH 7.4, 150 mM NaCl, 1 mM CHAPS) was added to 384 well Greiner 784076 (black) plates. Plates were centrifuged for 10 sec at 500 rpm. The plate was covered to protect it from light and incubated for 20 min at room temperature. The plates were read for fluorescence intensity at ex: 480/em: 540 using ViewLux microplate imager for Envision spectrofluoroimeters pIC50 data, curve and QC analysis was conducted by using XL fit module in Excel.
Take `C[C@H]1Cn2c(cc(OCc3ccc(Oc4ccc(C(F)(F)F)nc4)c(F)c3)nc2=O)N1C` [Example E6, (S)-7-((3-fluoro-4-((6-(trifluoromethyl)pyridin-3-yl)oxy)benzyl)oxy)-1,2-dimethyl-2,3-dihydroimidazo[1,2-c]pyrimidin-5(1H)-one]: the IC50 is at most 1 nM.

As for `C[C@H]1Cn2c(cc(OCc3ccc(Oc4ccc(F)cc4)c(F)c3)nc2=O)N1` [Example E130, (S)-7-((3-fluoro-4-(4-fluorophenoxy)benzyl)oxy)-2-methyl-2,3-dihydroimidazo[1,2c]pyrimidin-5(1H)-one], the IC50 is at most 10 nM.

Turning to `C[C@H]1Cn2c(cc(OCc3ccc(Oc4ccc(C(F)(F)F)nc4)c(F)c3)nc2=O)N1` [Example E62, (S)-7-((3-fluoro-4-((6-(trifluoromethyl)pyridin-3-yl)oxy)benzyl)oxy)-2-methyl-2,3-dihydroimidazo[1,2-c]pyrimidin-5(1H)-one], the IC50 was at most 1 nM.

For `O=c1nc(OCc2ccc(Oc3ccc(Cl)c(C(F)(F)F)c3)cc2)cc2n1CCN2C1CC1` [Example E17, 7-((4-(4-chloro-3-(trifluoromethyl)phenoxy)benzyl)oxy)-1-cyclopropyl-2,3-dihydroimidazo[1,2-c]pyrimidin-5(1H)-one], the IC50 is at most 10 nM.

In the case of `CN1c2cc(OCc3cccc(Cl)c3)nc(=O)n2CC1(C)C` [Example E21, 7-((3-chlorobenzyl)oxy)-1,2,2-trimethyl-2,3-dihydroimidazo[1,2-c]pyrimidin-5(1H)-one], the IC50 was at most 10 nM.

Regarding `[2H]C([2H])(Oc1cc2n(c(=O)n1)C[C@H](C)N2C)c1ccc(F)c(F)c1` [Example E22, (S)-7-(dideutero(3,4-difluorophenyl)methoxy)-1,2-dimethyl-2,3-dihydroimidazo[1,2-c]pyrimidin-5(1H)-one], the IC50 was at most 10 nM.

`C[C@H]1Cn2c(cc(OCc3ccc(Oc4cncc(C#N)c4)c(F)c3)nc2=O)N1C` [Example E24, (S)-5-(4-(((1,2-dimethyl-5-oxo-1,2,3,5-tetrahydroimidazo[1,2-c]pyrimidin-7-yl)ox-y)methyl)-2-fluorophenoxy)nicotinonitrile]: the IC50 was at most 10 nM.

For `CN1c2cc(OCc3cc(F)cc(Cl)c3)nc(=O)n2CC1(C)C` [Example E125, 7-((3-chloro-5-fluorobenzyl)oxy)-1,2,2-trimethyl-2,3-dihydroimidazo[1,2-c]pyrimidin-5(1H)-one], the IC50 was at most 10 nM.

In the case of `CN1c2cc(OCc3cc(F)ccc3F)nc(=O)n2CC1(C)C` [Example E92, 7-((2,5-difluorobenzyl)oxy)-1,2,2-trimethyl-2,3-dihydroimidazo[1,2-c]pyrimidin-5(1H)-one], the IC50 was at most 10 nM.

Take `C[C@H]1Cn2c(cc(OCc3ccc(F)c(F)c3)nc2=O)N1` [Example E9, (S)-7-((3,4-difluorobenzyl)oxy)-2-methyl-2,3-dihydroimidazo[1,2-c]pyrimidin-5(1H)-one]: the IC50 was at most 10 nM.

In the case of `C[C@H]1Cn2c(cc(OCc3cc(F)c(Oc4cccc(F)c4)c(F)c3)nc2=O)N1C` [Example E76, (S)-7-((3,5-difluoro-4-(3-fluorophenoxy)benzyl)oxy)-1,2-dimethyl-2,3-dihydroimidazo[1,2-c]pyrimidin-5(1H)-one], the IC50 is at most 1 nM.

On to `C[C@H]1Cn2c(cc(OCc3cc(F)c(Oc4ccc(F)c(F)c4)c(F)c3)nc2=O)N1C` [Example E126, (S)-7-((4-(3,4-difluorophenoxy)-3,5-difluorobenzyl)oxy)-1,2-dimethyl-2,3-dihydroimidazo[1,2-c]pyrimidin-5(1H)-one], for which the IC50 is at most 1 nM.

Turning to `C[C@H]1Cn2c(cc(OCc3ccc(Oc4ccc(F)cc4)c(C#N)c3)nc2=O)N1C` [Example E57, (S)-5-(((1,2-dimethyl-5-oxo-1,2,3,5-tetrahydroimidazo[1,2-c]pyrimidin-7-yl)oxy)methyl)-2-(4-fluorophenoxy)benzonitrile], the IC50 was at most 1 nM.

Consider `[2H]C([2H])(Oc1cc2n(c(=O)n1)C[C@H](C)N2C)c1cc(F)c(F)c(F)c1` [Example E86, (S)-7-(dideutero(3,4,5-trifluorophenyl)methoxy)-1,2-dimethyl-2,3-dihydroimidazo[1,2-c]pyrimidin-5(1H)-one], for which the IC50 is at most 10 nM.

For the compound `C[C@H]1Cn2c(cc(OCc3ccc(Oc4cccc(F)c4)c(F)c3)nc2=O)N1C` [Example E27, (S)-7-((3-fluoro-4-(3-fluorophenoxy)benzyl)oxy)-1,2-dimethyl-2,3-dihydroimidazo-[1,2-c]pyrimidin-5(1H)-one], the IC50 was at most 10 nM.

Take `CN1c2cc(OCc3ccc(Cl)c(F)c3)nc(=O)n2CC1(C)C` [Example E36, 7-((4-chloro-3-fluorobenzyl)oxy)-1,2,2-trimethyl-2,3-dihydroimidazo[1,2-c]pyrimidin-5(1H)-one]: the IC50 is at most 10 nM.

For the compound `N#Cc1cc(COc2cc3n(c(=O)n2)CCN3C2CC2)ccc1Oc1ccc(F)c(F)c1` [Example E118, 5-(((1-cyclopropyl-5-oxo-1,2,3,5-tetrahydroimidazo[1,2-c]pyrimidin-7-yl)oxy)methyl)-2-(3,4-difluorophenoxy)benzonitrile], the IC50 is at most 10 nM.

Regarding `C[C@H]1Cn2c(cc(OCc3ccc(Oc4ccc(F)cc4)c(F)c3)nc2=O)N1C` [Example E94, (S)-7-((3-fluoro-4-(4-fluorophenoxy)benzyl)oxy)-1,2-dimethyl-2,3-dihydroimidazo[1,2-c]pyrimidin-5(1H)-one], the IC50 was at most 10 nM.

For the compound `C[C@H]1Cn2c(cc(OCc3ccc(Oc4cccc(F)c4)c(F)c3)nc2=O)N1` [Example E28, (S)-7-((3-fluoro-4-(3-fluorophenoxy)benzyl)oxy)-2-methyl-2,3-dihydroimidazo[1,2-c]pyrimidin-5(1H)-one], the IC50 is at most 10 nM.

Another experiment concerns the target T2, Lp-PLA2 in human plasma (Homo sapiens, UniProt Q13093).
T2 construct: from tissue; host or cells: pooled human plasma
T2 sequence (Q13093 22-441): T1 sequence (Q13093 22-441)
Nature of the experiment: Lp-PLA2 human plasma assay (Thio-PAF assay). As to conditions: pooled human plasma; lower bounds; read-out: pIC50 values in the thio-PAF assay (converted). Format: biochemical. The text has this: (3) Lipoprotein-Associated Phospholipase A2 (Lp-PLA2) Human Plasma Assay (Also Referred to as “Thio-PAF assay”)
The human plasma assay utilizes a thioester analog of PAF (phosphatidylcholine), where hydrolysis yields to the formation of a phospholipid containing a free thiol group. The amount of thiol is quantitated continuously by reacting with CPM (7-diethylamino-3-(4′-maleimidylphenyl)-4-methylcoumarin), a maleimide which increases in fluoresence after Michael addition of thiols. This assay may detect the activity of Lp-PLA2 in human plasma, as determined by specific inhibition by Lp-PLA2 inhibitors.
The thio-PAF assay was run as a quenched 15 μL assay. Compounds source plate was prepared by making 1:3 (by volume) serial dilution of the compounds into pure DMSO on 384-well microplate. 0.01 μL of compounds on compound source plate were transferred to 384 well Greiner 784076 (black) low-volume plates by ECHO liquid dispenser. 8 μL pooled human plasma, which was previously aliquoted and frozen, was added. Plates were centrifuged for 10 sec at 500 rpm. After 30 minutes preincubation, 2 μL of substrate solution comprising 2.5 mM 2-thio-PAF [from ethanol stock], 32 μM CPM [from a DMSO stock] and 3.2 mM NEM (N-ethylmaleimide) [made fresh daily in DMSO] in assay buffer of 50 mM HEPES, pH 7.4, 150 mM NaCl, 1 mM CHAPS was added to 384 well Greiner 784076 (black) low-volume plates by BRAVO liquid handling station. After 2 mins, reaction was quenched with 5 μL of 5% aqueous trifluoroacetic acid (TFA). Plates were covered to protect from light and incubated for 40 min at room temperature. Plates were read at ex: 380/em: 485 using-Envision microplate reader. PIC50 data, curve and QC analysis were conducted by using XLFit module in Excel.
Turning to `C[C@@H]1Cn2c(cc(OCc3cccc(C#N)c3)nc2=O)N1C` [Example E33, (R)-3-(((1,2-dimethyl-5-oxo-1,2,3,5-tetrahydroimidazo[1,2-c]pyrimidin-7-yl)oxy)methyl)benzonitrile], the IC50 was at most 100 nM.

`CN1c2cc(OCCC3CCCC3)nc(=O)n2CC1(C)C` [Example E52, 7-(2-cyclopentylethoxy)-1,2,2-trimethyl-2,3-dihydroimidazo[1,2-c]pyrimidin-5(1H)-one]: the IC50 is at most 100 nM.

Take `C[C@H]1Cn2c(cc(OCc3cccc(C#N)c3)nc2=O)N1` [Example E109, (S)-3-(((2-methyl-5-oxo-1,2,3,5-tetrahydroimidazo[1,2-c]pyrimidin-7-yl)oxy)methyl)benzonitrile]: the IC50 was at most 100 nM.

`C[C@H]1Cn2c(cc(OCc3cccc(C#N)c3)nc2=O)N1C` [Example E72, (S)-3-(((1,2-dimethyl-5-oxo-1,2,3,5-tetrahydroimidazo[1,2-c]pyrimidin-7-yl)oxy)methyl)benzonitrile]: the IC50 was at most 100 nM.
